Source: patent publication US20220151994A1, “THERAPEUTIC METHODS AND COMPOSITIONS FOR TREATING LYMPHOMA USING 6,8-BISBENZYLTHIO-OCTANOIC ACID” (Rafael Pharmaceuticals, Inc., priority 2019, published 2022)

How the values were obtained:
[1] = Toxicities/side effects seen in prior CPI-613 studies treating other types of cancers; assay type: in vivo
Excerpt: Given the limited data for treating Burkitt lymphoma and other hematological malignancies with CPI-613, the following are the most frequent toxicities seen in prior CPI-613 studies treating other types of cancers.

[2] = pH and stability of CPI-613 drug product diluted with D5W; assay type: physicochemical; settings: solution in 1M aqueous triethanolamine diluted from 50 mg/mL to as low as 4 mg/mL with D5W
Experimental: A solution of 6,8-bis-benzylthio-octanoic acid in 1M aqueous triethanolamine is diluted from 50 mg/mL to as low as 4 mg/mL with sterile 5% dextrose for injection (D5W) prior to administration. After dilution with D5W, the solution is clear and has a pH of 8.4-8.8. The D5W solution of 6,8-bis-benzylthio-octanoic acid is administered as an IV infusion over two hours via a central venous catheter on days 1-5 of every cycle.
CPI-613 must be diluted from 50 mg/mL to 12.5 mg/mL with 5% Dextrose Water (D5W) (i.e., 1 portion of CPI-613 diluted with 3 portions of D5W) prior to administration. The diluted drug product should be visually inspected for clarity. […] After dilution with sterile D5W, the solution is clear and has a pH of 8.4-8.8.

[3] = Compatibility studies with IV infusion sets, IV bags and syringes (Study COM-003); assay type: physicochemical
Excerpt: Therefore, DEHP-containing IV infusion sets, IV bags or syringes should not be used in mixing or administration of CPI-613. […] Therefore, these 4 types of IV infusion sets, and IV infusion sets that are made with the same materials, can be used to administer CPI-613. […] Therefore, any of these types of syringes, and syringes that are made with the same materials, can be used to administer CPI-613. Also, glass syringes can also be used, since glass (such as glass containers) is compatible with CPI-613 drug product. • Norm-Ject, polyethlyene barrel, polyethylene plunger, latex free (Henke Sass Wolf GMBH) syringes • Becton Dickinson syringes • Terumo syringes • Monoject syringes • Glass syringes

[4] = Animal studies of IV administration of CPI-613; assay type: in vivo
Experimental: CPI-613 must be administered IV, via an IV catheter that is free flowing and free of air in the dead space of the IV catheter, to minimize vascular irritation, inflammation and acute toxicity of CPI-613. […] To avoid local reactions at and around the site of administration, CPI-613 must be administered via a central venous catheter.
CPI-613 must not be administered as a bolus, but by infusion, at a rate of ˜0.5 mL/min, via a central venous catheter with D5W running at a rate of about 125-150 mL/hr. This is to minimize potential acute toxicity of CPI-613, according to animal studies.

[5] = Maximum tolerated dose of CPI-613 as a single agent; assay type: in vivo; settings: CPI-613 given as a single agent
Experimental: In the event that the DLT in ≥2 patients is not observed once the 3,000 mg/m^2 cohort has been tested, dose escalation is also considered to be complete since 3,000 mg/m^2 is the MTD of CPI-613 when given as a single agent. Three additional patients will be enrolled at the MTD for a total of six expected patients at this dose level.

[6] = Photosensitivity of CPI-613; assay type: physicochemical
Experimental: Each vial contains 10 mL of CPI-613 at a concentration 50 mg/mL, equivalent to 500 mg of CPI-613. The drug product of CPI-613 is a clear and colorless solution that is free of any particulate matter. CPI-613 should be stored under refrigeration, at 2°-8° C. (36°-46° F.), except when being prepared for administration.

In the case of `O=C(O)CCCCC(CCSCc1ccccc1)SCc1ccccc1` (stereo not drawn) [CPI-613, 6,8-bis-benzylthio-octanoic acid], the Common side effects [1] is reported as “nausea, leukocytopenia, neutrophils (neutropenia), fatigue, and elevated alkaline phosphatase (ALP)”, the “Rare but serious side effects” value [1] is reported as “infections, disseminated intravascular coagulation, elevated troponin, and renal failure” and the “pH of solution after dilution with D5W” value [2] is reported as 8.4-8.8. The “Compatibility with IV infusion sets” value ([3]; PVC, latex and polyethylene sets) was “compatible with 4 commonly used IV infusion sets”, the “Leaching of DEHP from IV infusion sets and IV bags” value ([3]; Study COM-003) was “can cause leaching of Diethylhexyl Phthalate (DEHP)” and the “Effect of accidental co-administration of extra air in the dead space of IV catheters” value ([4]; animal studies, IV administration) was “potential to induce acute toxicity”. For the same compound, the “Effect of accidental leakage into the perivascular space during IV administration” value ([4]; in vivo, iv) was “can induce significant local inflammation”, the MTD [5] was 3,000 mg/m^2 and the Photosensitivity [6] was “slightly photosensitive”.
